Laboratory results published in US20140148500A1, “PROGRAMMABLE SELF-ASSEMBLED NANOSTRUCTURES BASED ON SIDECHAIN-MODIFIED PNA FOR THE MULTIVALENT DISPLAY OF LIGANDS” (priority 2010, published 2014).
Where “and” joins values, the source holds several entries; their conditions need not be identical. Equal entries are not always repeated.

Test system: C32 cells
Assay: Cell adhesion assay, IC50 of multivalent RGD constructs (method of Sipes et al.)
Type: cell-based
Settings: read-out: IC50 Data (nM), RGD control result in parenthesis, unnormalized, control run alongside the data point it follows
Text: Multi 1 indicates one PNA construct associated with the DNA. Multi 2 indicates two PNA construct associated with the DNA and so on. […] In the constructs depicted herein, the designator in parentheses (T5, for example) represents the number of thymine bases in the DNA sequence that is inserted to create a spacer between adjacent PNA binding portions of the DNA. T0 represents the absence of any spacer thymine bases. […] “x” indicates no data is available for that experiment. […] Constructs from Example 5 were utilized herein.

SMILES: N=C(N)NCCC[C@@H]1NC(=O)[C@H](CCCCN)NC(=O)[C@@H](Cc2ccccc2)NC(=O)[C@H](CC(=O)O)NC(=O)CNC1=O [RGD]
- IC50: 475 nM and 329 nM and 690 nM
